Data on two compounds can be found in patent publication US8603497B2, “Composition for local anesthesia” (National University Corporation Okayama University, priority 2008, dated 2013).

For assay [1], the system named is Hartley male guinea pigs. The experiment in a line: guinea pig wheal method (durability of local anesthetic action). The settings on record: for ED50 for dexmedetomidine hydrochloride alone (local anesthesia enhancing action) / ED50 for adrenaline alone (local anesthesia enhancing action): added alone to lidocaine hydrochloride; for ED50 for dexmedetomidine hydrochloride alone (local anesthesia enhancing action): calculated from scores of Solutions 1 to 5; for theoretical ED50 value in combined use / ED50 value obtained in the experiment in combined use: combined use of adrenaline and dexmedetomidine; for theoretical ED50 value in combined use: isobologram, mean ±95% confidence interval in brackets; for ED50 value obtained in the experiment in combined use: significantly different from theoretical, P<0.05 (T-test); for ED50 for adrenaline alone (local anesthesia enhancing action): calculated from scores of Solutions 6 to 10.
Procedure: A guinea pig wheal method was employed. The hair on the back of Hartley male guinea pigs each having a body weight of 500 to 600 g was clipped. After that, 0.1 ml each of Solutions 1 to 5 blended as described above was injected intracutaneously, and the surroundings of wheals, which developed in the skin, were marked with a felt-tipped pen. Pricks were applied on six sites inside each wheal with a fixed-weight sensory needle. […] The pricks were applied every 5 minutes until 60 minutes, and the total of the number of times that an anesthetic effect was observed was used as a score to assess the durability of a local anesthetic action. A 50% effective dose (effective dose 50: ED50) for dexmedetomidine was calculated based on a score for each of Solutions 1 to 5.
Each score for Solutions 16 to 21 and Solutions 22 to 27 was calculated to assess a local anesthetic effect.
Each score for Solutions 28 to 31 was calculated to assess a local anesthetic effect.

The subject of assay [2] is Hartley male guinea pigs. Nature of the assay: peripheral blood flow by Doppler rheometer after intradermal injection. Particulars: 0.1 ml intradermal, every 5 minutes until 30 minutes, ratio to baseline; FIG. 2. The assay is classed as in vivo, guinea pig. The method, then: The hair of the back was clipped and then three sites around the center of the back were marked with a felt-tipped pen at sufficient intervals. A blood flow value was measured by attaching a Doppler rheometer (ALF21RD; ADVANCE CO., LTD., Tokyo) probe and was used as a baseline value (Time 0). […] 0.1 ml each of Solutions 32, 33, and 34 obtained by the blending was intradermally injected into the three sites and the Doppler rheometer probe was fixed on the same sites. A blood flow value was time-dependently measured at an interval of 5 minutes after the injection until 30 minutes. The ratio of the blood flow value to the baseline value (0 to 1.0) was expressed as a peripheral blood flow degree and a time-dependent change at each of the injection sites was determined.

Where a name gives a salt, the structure may show the parent alone.

In the case of `Cc1cccc([C@H](C)c2cnc[nH]2)c1C` [dexmedetomidine hydrochloride, Dexmedetomidine hydrochloride], in the assay on Hartley male guinea pigs [1], the “ED50 for dexmedetomidine hydrochloride alone (local anesthesia enhancing action)” value is 78.3 nM, the “theoretical ED50 value in combined use” value was determined as 39.2 nM and the “ED50 value obtained in the experiment in combined use” value amounted to 11.3 nM. For the same compound, in the assay with Hartley male guinea pigs [1] (listed as Dexmedetomidine hydrochloride), the “ED50 for dexmedetomidine hydrochloride alone (local anesthesia enhancing action)” value is 78.3 nM. Moreover, the “peripheral blood flow / peripheral vasoconstriction” value in the assay with Hartley male guinea pigs [2] is recorded as “tended to suppress the peripheral vasoconstriction action of adrenaline”.

On to `CNCC(O)c1ccc(O)c(O)c1` (stereo not drawn) [adrenaline], for which, in the assay with Hartley male guinea pigs [1], the “ED50 for adrenaline alone (local anesthesia enhancing action)” value is 5910 nM, the “theoretical ED50 value in combined use” value was 2960 nM and the “ED50 value obtained in the experiment in combined use” value came to 788 nM. Also, in the assay on Hartley male guinea pigs [1] (listed as Adrenaline), the “ED50 for adrenaline alone (local anesthesia enhancing action)” value was 5910 nM.
